Literature values in patent publication US20040076968A1, “Method for detecting pre-disposition to hepatotoxicity” (priority 2000, published 2004).

Target: T1, UGT1A6*2 allelic variant (Homo sapiens, UniProt P19224, R184S/T181A)
T1 sequence (P19224 27-532 T181A/R184S): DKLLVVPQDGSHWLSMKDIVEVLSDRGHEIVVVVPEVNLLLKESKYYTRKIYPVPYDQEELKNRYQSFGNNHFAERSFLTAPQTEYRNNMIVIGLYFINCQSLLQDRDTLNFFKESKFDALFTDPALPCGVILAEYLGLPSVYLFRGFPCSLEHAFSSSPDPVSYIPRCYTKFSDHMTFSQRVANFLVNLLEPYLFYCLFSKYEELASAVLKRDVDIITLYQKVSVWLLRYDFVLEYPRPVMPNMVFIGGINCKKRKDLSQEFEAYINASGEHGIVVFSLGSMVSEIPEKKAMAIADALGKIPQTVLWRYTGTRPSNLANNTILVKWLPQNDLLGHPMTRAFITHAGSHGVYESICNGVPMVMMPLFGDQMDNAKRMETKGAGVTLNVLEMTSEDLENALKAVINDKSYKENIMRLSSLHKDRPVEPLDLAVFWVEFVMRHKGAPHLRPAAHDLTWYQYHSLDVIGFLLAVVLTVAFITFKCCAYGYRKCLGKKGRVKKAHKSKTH
Conditions: cited from earlier work; for metabolism compared with wild-type isoenzyme (in words): UGT1A6*2 expressed in COS cells

Oc1cccc2ccccc12 [1-Naphtol]
metabolism compared with wild-type isoenzyme (in words): normal levels

Oc1cccc(I)c1 [3iodophenol]
metabolism compared with wild-type isoenzyme (in words): normal levels

Cc1cc(=O)oc2cc(O)ccc12 [7-hydroxy-4-methylcoumarin]
metabolism compared with wild-type isoenzyme (in words): normal levels

O=c1ccc2ccc(O)cc2o1 [7-hydroxycoumarin]
metabolism compared with wild-type isoenzyme (in words): normal levels

COc1ccc(O)c(C(C)(C)C)c1 [butylated hydroxy anisole]
rate of metabolism relative to the wild-type isoenzyme (pH 6.4): 27-75%

N[C@@H](Cc1ccc(O)c(O)c1)C(=O)O [levodopa]
activity of UGT1A6 alleles Thr181Ala and Arg184Ser for the substrate: reduced activity
